Measurements published in patent publication US20100305036A1, “COMBINATION OF PROTEIN TYROSINE PHOSPHATASE INHIBITORS AND HUMAN GROWTH HORMONE FOR THE TREATMENT OF MUSCLE ATROPHY AND RELATED DISORDERS” (priority 2007, published 2010).

What was measured:
[1] = test system: C2C12 myotubes; test: C2C12 myotube diameter; type: cell-based
Text: C2C12 cells can be obtained from the American Type Tissue Culture Bank and propagated in standard growth media containing 10% horse serum. When cells reached 70% confluency the media is changed to differentiation media containing 2% horse serum. Three days after start of differentiation multinucleated myotubes should be present, with visible striations, indicating differentiation. hGH can be used as a positive control for activating the IGF-1 receptor, or alternatively, combined with a PTP1B inhibitor to assess synergistic or additive effects. Consequently, PTP1B inhibitors and/or hGH can be added to the media for various times.
Myotube Diameter Myotube diameter can be assessed 24 hours after addition of PTP1B inhibitor and/or hGH to myotube media. Cells are washed in saline and fixed in gluteraldehyde. Images can be obtained on an inverted microscope using the green fluorescent channel to visualize the auto-fluorescence induced by the gluteraldehyde fixation. Images are printed out at standard magnification and the sixty largest myotubes measured at their largest diameter (as previously published). The fifty largest myotubes in each group can be statistically compared using the Kruskal-Wallis One Way Analysis on Ranks. Differences are considered significant if p<0.05 and designated by an asterisk in FIG. 1. […]

[2] = test system: AKT phosphorylation; details: hGH treatment of C2C12; cited from earlier work

**Q.** For “hGH: Human Growth Hormone, can be purchased from Bachem H-3148”, which C2C12 myotube diameter ([1]; hGH alone) is on record?
**A.** significant increase

**Q.** What about the AKT phosphorylation [2] of the same substance?
**A.** cause AKT phosphorylation

**Q.** Which myotube hypertrophy ([1]; IGF1 alone added to C2C12 myotubes media at 10 ng/ml) does the source give for “IGF1: human insulin-like growth factor1 or IGF1, however formulated or stabilized” here?
**A.** significantly hypertrophied
